Experimental data from patent US9512176B2, “Age inhibitors” (Centre National de la Recherche Scientifique, priority 2005, dated 2016).
Non-standard residues stand in square brackets, D forms with d. Residues, ends and D or L forms follow the SMILES beside them. Dap = NC[C@H](N)C(=O)O

System: EA.hy 926 cell line
Experiment: Growth of EA.hy 926 endothelial cells with MG scavengers and/or methylglyoxal (MTT)
Type: cell-based, human
Method: The cells used for the test are from the EA.hy 926 cell line, which are endothelial cells obtained by the hybridization of human umbilical vein endothelial cells (HUVECs) with lung cancer cells (A549). The EA.hy 926 endothelial cells are incubated in Dulbecco's modified Eagle's Medium (DMEM) enriched with 10% fetal calf serum. The cells are incubated in 12-well plates. Each well initially contains 100,000 cells. Cell growth is achieved by incubating the cells in 2 ml of culture medium after adding or not adding the various potential inhibitors (1 mM) and/or methylglyoxal (600 μM) for 48 hours at 37° C. in a moist atmosphere with 5% CO2.
The number of cells is evaluated in the following way:
The cells are stained using the (4,5-dimethylthiazol-2-yl)-2,5-diphenyltetrazolium bromide (MTT) assay. MTT penetrates in the cell where it is converted into formazan. The quantity of formazan formed is proportional to the number of living cells.
The results are expressed as a relative percentage of the number of cells after treatment compared to the number of control cells without treatment [100*OD (treated cells)/OD (control cells)]. Detection is carried out by UV/visible spectrophotometry at 570 nm.
Principle: MTT (yellow) penetrates the cell and is converted into an insoluble blue compound, formazan, by cleavage of its tetrazolium rings by the mitochondrial dehydrogenase enzymes of living cells. Formazan is solubilized by isopropanol. The number of cells is proportional to the quantity of formazan formed and its absorbance.

## CC(C)C[C@H](NC(=O)[C@@H](N)CN)C(=O)O [example 1, L-DAPA-L-Leu.2HCl] (H-[Dap]-Leu-OH)
  cell survival when incubated with MG: 81%
Homo sapiens, EA.hy 926, scavenger 1 mM + methylglyoxal 600 μM, 48 hours, relative to untreated control cells, MG alone 24, mean of 3 experiments, read-out: Cells + MG scavengers + Methylglyoxal (B)
  viability at 1000 µM: 81%
Table 2, cells with scavenger + MG minus cells with scavenger alone
  Difference (B) − (A): −13
Scavenger 1 mM, no methylglyoxal, 48 hours, number of cells relative to untreated control cells, mean of 3 experiments
  Cells + MG scavengers (A): 94%
Scavenger + methylglyoxal
  effect against suppression of cell growth by MG: same trend
Values in brackets
  difference between number of cells growing with compound and with MG and compound: −13
